The values that follow come from US12410171B2, “Tropomyosin receptor kinase (TRK) degradation compounds and methods of use” (Cullgen (Shanghai), Inc., priority 2020, dated 2025).

Series [1] can be described thus: Mouse pharmacokinetic (PK) studies, plasma concentrations. Format: in vivo, mice. To be noted: for bioavailability: mouse, plasma, oral, male ICR mice, single dose 10 mg/kg orally or 1 mg/kg intravenously (FIG. 23A). As for the experimental part:
A single […] intraperitoneal injection of compound TR-123 was evaluated. Plasma concentrations of TR-123 reported at each of the 6 time points (30 min, 1 h, […], 4 h, 8 h, and 12 h post compound administration) are the average values from 3 test animals.
A single 2 mg/kg intravenous injection and 20 mg/kg oral gavage of TR-198 were evaluated in mice. Plasma concentrations of TR-198 reported at each of the 6 time points (5 min, 30 min, 2 h, 4 h, 8 h, and 12 h post compound administration via IV, 30 min, 1 h, 2 h, 4 h, 8 h, and 12 h post compound administration via p.o.) are the average values from 3 test animals.
Plasma concentrations of TR-231 and TR-275 were determined following a single dose of 10 mg/kg orally or 1 mg/kg intravenously in male ICR mice (FIG. 23A). Plasma concentrations of TR-231 or TR-275 are examined at indicated different time points post compound administration. The reported values are the average values from 3 test animals.
Standard PK studies were conducted using male Swiss Albino mice by Sai Life Sciences or using male ICR mice by Cullgen. Plasma exposures of TR-123 (10 mg/kg, intraperitoneal injection), TR-198 (20 mg/kg, oral gavage, or 2 mg/kg, intravenous injection), TR-231 and TR-275 (10 mg/kg, oral gavage, or 1 mg/kg, intravenous injection) were determined. Plasma concentrations were reported at indicated time points as the average values derived from three experimental animals. Error bars represent standard deviations.

The target of the next series is T1, wildtype TRKA protein (Homo sapiens, UniProt P04629).
T1 construct: wildtype TRKA protein expressed by HEL cells; endogenous in cells; host or cells: HEL erythroleukemia cells
Kind of series: Wildtype TRKA protein levels in HEL erythroleukemia cells (Western blot). Format: cell-based. The conditions noted are these: for TRKA protein levels: dose range (FIG. 8). As for the experimental part: KM12 or HEL cells were treated with a dose range of compound TR-123 or TR-123-negative. The latter lost binding to cereblon (CRBN) due to a chemical modification.
KM12 or HEL cells were treated with a single dose of compound TR-123 or combination with MG-132, Bortezomib, MLN4924 or Pomalidomide.
HEL cells were treated with heterobifunctional compounds at 10 nM or 100 nM for 16 hours.
KM12, H358, HEL, SU-DHL-1 and other cells were cultured at 37° C. with 5% CO2 in RPMI 1640 Medium supplemented with 10% fetal bovine serum. Cells were authenticated using the short tandem repeat (STR) assays. Mycoplasma test results were negative. Stable cell lines were established by lentivirus transduction, selected and maintained in medium containing 1 μg/mL puromycin (Beyotime Biotechnology).
Cultured cells were washed with cold PBS once and lysed in cold RIPA buffer supplemented with protease inhibitors and phosphatase inhibitors (Beyotime Biotechnology). The solutions were then incubated at 4° C. for 30 minutes with gentle agitation to fully lyse cells. For tumor tissues, tumors were cut into small pieces, milled with cold RIPA buffer using a mechanical homogenizer and lysed for 1 hour at 4° C. Cell lysates were centrifuged at 13,000 rpm for 10 minutes at 4° C. and pellets were discarded. Total protein concentrations in the lysates were determined by BCA assays (Beyotime Biotechnology). Cell lysates were mixed with Laemmli loading buffer to 1× and heated at 99° C. for 5 min. Proteins were resolved on SDS-PAGE and visualized by chemiluminescence. Images were taken by a ChemiDoc MP Imaging system (Bio-Rad). Protein bands were quantitated using the software provided by Bio-Rad.

The target of another series is T2, TPM3-TRKA fusion protein (Homo sapiens, UniProt P04629).
T2 construct: The resulted chimeric proteins always retain the kinase domain of TRK proteins; TPM3 (fusion partner, N-terminal part of tropomyosin alpha-3, P06753); endogenous in cells; host or cells: KM12 colon cancer cells; the other entry of the earlier key: TPM3 (P06753, Tropomyosin alpha-3 chain)
The series can be described thus: TPM3-TRKA fusion protein levels in KM12 cells (Western blot). Format: cell-based. To be noted: for percent degradation of TPM3-TRKA protein at 0.01 µM: 16 h, TPM3-TRKA degradation in KM12 cells at 10 nM compound, category of percentage degradation, read-out: Degradation (at 10 nM); for TRKA protein levels: dose range (FIG. 8). The gist of the method: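 KM12 colon cancer cells were treated with DMSO or compounds at 0.1–100 nM, 0.4–30 nM or other stated concentrations for 4, 8–16 or 16 h. RIPA lysates were BCA-normalized and resolved by SDS-PAGE. TPM3-TRKA was detected by chemiluminescent Western blot, with bands quantified by densitometry.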

Another series concerns KM12 cells. The series can be described thus: KM12 cell viability (CellTiter-Glo). Format: cell-based. To be noted: Homo sapiens, 72 h; KM12 cell viability, CellTiter-Glo, three days treatment; read-out: IC50. The gist of the method:
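KM12 cells seeded at 5000 per well in RPMI 1640 + 10% FBS and exposed 3 days to serial dilutions (11-point 3-fold, 8-point 3-fold from 1000 nM, or 12-point 2-fold). Viability by CellTiter-Glo; IC50 from least-squares nonlinear regression.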
(In ATP-based viability assays light output follows the ATP content of the culture.)

The test system of series [2] is KM12 subcutaneous xenograft tumors. Kind of series: KM12 subcutaneous xenograft tumor growth. The format is in vivo, Athymic nude mice. The conditions noted are these: 10-20 mg/kg qd or bid via oral gavage (FIG. 15A-15B). As for the experimental part: Athymic nude mice bearing KM12 subcutaneous xenograft tumors at the right flank were intraperitoneally treated with vehicle or 25 mg/kg CPD-060 once per day (qd), twice per day (bid), or once every two days (q2d). Tumor volumes were assessed every two days and expressed as length×width×width/2. Body weights of experimental mice were also measured to assess the toxicity of compounds.
Athymic nude mice bearing KM12 subcutaneous xenograft tumors at the right flank were treated with vehicle, 10-20 mg/kg TR-181 or TR-198 once per day (qd), or twice per day (bid) via oral gavage. Tumor volumes were assessed every two days and expressed as length×width×width/2. Body weights of experimental mice were also measured to assess the toxicity of compounds.
Mice bearing KM12 xenograft tumors were treated with vehicle, TR-231 or TR-275 orally at 40 mg/kg, twice per day for 14 days. Tumor sizes were measured every two days and presented as volume=(length×width×width)/2. […]
All animal experiments were performed under protocols approved by the Institutional Animal Care and Use Committee (IACUC) of Cullgen. […] Tumor volumes were calculated as […]. For tumor growth assays, tumor sizes and body weight of mice were measured every 2 days. For pharmacodynamic studies, the levels of TPM3-TPKA in xenograft tumors was determined following a single dose of drug administration. […]

In a further series the test system is TRK-fusions. To be noted: phase 2 results, cited from earlier work.

T1 sequence (P04629 33-796): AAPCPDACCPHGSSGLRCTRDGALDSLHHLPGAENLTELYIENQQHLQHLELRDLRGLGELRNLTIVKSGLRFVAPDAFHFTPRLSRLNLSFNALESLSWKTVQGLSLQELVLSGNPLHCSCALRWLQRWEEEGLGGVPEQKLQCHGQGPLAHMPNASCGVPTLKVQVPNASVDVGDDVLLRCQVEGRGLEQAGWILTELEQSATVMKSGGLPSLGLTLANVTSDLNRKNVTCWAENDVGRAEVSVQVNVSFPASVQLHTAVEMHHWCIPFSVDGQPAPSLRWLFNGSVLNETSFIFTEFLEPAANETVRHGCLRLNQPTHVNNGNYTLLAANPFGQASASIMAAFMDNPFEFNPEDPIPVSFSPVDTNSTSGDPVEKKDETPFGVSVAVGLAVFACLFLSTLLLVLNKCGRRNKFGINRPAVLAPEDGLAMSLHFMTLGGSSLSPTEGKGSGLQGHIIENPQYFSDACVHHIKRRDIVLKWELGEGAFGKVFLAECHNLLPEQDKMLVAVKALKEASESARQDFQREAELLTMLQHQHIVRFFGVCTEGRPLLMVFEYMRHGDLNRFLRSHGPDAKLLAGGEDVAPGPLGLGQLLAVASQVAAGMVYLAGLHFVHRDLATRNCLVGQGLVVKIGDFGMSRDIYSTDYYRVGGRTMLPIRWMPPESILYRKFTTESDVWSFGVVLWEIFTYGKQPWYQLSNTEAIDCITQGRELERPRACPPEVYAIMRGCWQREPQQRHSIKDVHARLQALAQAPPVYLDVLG
T2 sequence (P04629 with tags, fused parts or gaps): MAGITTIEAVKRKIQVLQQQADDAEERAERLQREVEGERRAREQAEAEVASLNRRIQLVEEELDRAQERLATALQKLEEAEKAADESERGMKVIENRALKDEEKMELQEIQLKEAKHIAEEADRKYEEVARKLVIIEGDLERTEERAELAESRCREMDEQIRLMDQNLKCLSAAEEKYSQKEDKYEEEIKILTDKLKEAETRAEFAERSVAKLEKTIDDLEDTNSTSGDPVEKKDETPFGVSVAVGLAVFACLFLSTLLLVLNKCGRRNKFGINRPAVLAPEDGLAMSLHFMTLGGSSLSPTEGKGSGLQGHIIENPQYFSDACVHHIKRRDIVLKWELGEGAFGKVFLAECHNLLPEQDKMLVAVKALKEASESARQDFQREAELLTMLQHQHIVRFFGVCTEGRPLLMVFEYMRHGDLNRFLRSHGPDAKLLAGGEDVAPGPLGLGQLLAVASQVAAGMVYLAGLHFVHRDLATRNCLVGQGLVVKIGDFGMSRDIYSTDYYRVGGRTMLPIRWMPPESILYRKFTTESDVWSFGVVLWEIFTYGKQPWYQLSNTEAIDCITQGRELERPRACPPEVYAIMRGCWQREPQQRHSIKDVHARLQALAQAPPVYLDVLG

In the case of `O=C1CCC(N2C(=O)c3ccc(NCC(=O)N4CCN(c5cccc(-c6cnc7ccc(N8CCC[C@@H]8c8cccc(F)c8)nn67)n5)CC4)cc3C2=O)C(=O)N1` (stereo partly drawn) [TR-123, 2-(2,6-dioxopiperidin-3-yl)-5-((2-(4-(6-(6-((R)-2-(3-fluorophenyl)pyrrolidin-1-yl)imidazo[1,2-b]pyridazin-3-yl)pyridin-2-yl)piperazin-1-yl)-2-oxoethyl)amino) isoindoline-1,3-dione], in series [1] (single 20 mg/kg intraperitoneal injection, over 12 hours, average of 3 animals (FIG. 11)), the plasma exposure result is reported as “good plasma exposure”. For the same compound, the TRKA protein levels entry at wildtype TRKA protein and on TPM3-TRKA fusion protein (KM12 cells) was “reduced TRKA protein levels in a concentration-dependent manner” throughout. In addition, the “TRKA degradation in combination with MG-132, Bortezomib, MLN4924 or Pomalidomide” value at wildtype TRKA protein (single dose (FIG. 9)) was “compromised”; on TPM3-TRKA fusion protein (KM12 cells, single dose (FIG. 9)), “compromised”. In addition, the percent degradation of TPM3-TRKA protein at 0.01 µM at TPM3-TRKA fusion protein was greater than 80%.
For `CN1C(=O)CCC(N2C(=O)c3ccc(NCC(=O)N4CCN(c5cccc(-c6cnc7ccc(N8CCC[C@@H]8c8cccc(F)c8)nn67)n5)CC4)cc3C2=O)C1=O` (stereo partly drawn) [TR-123-negative, 5-((2-(4-(6-(6-((R)-2-(3-fluorophenyl)pyrrolidin-1-yl)imidazo[1,2-b]pyridazin-3-yl)pyridin-2-yl)piperazin-1-yl)-2-oxoethyl)amino)-2-(1-methyl-2,6-dioxopiperidin-3-yl)isoindoline-1,3-dione], the TRKA protein levels result at wildtype TRKA protein and at TPM3-TRKA fusion protein (KM12 cells) was “had none or less effects on TRKA protein levels” each time.
The IC50 is the concentration needed to halve the response being measured. For `O=C1CCC(N2C(=O)c3ccc(NCCN4CCN(c5cccc(-c6cnc7ccc(N8CCC[C@@H]8c8cccc(F)c8)nn67)n5)CC4)cc3C2=O)C(=O)N1` (stereo partly drawn) [TR-181, 2-(2,6-dioxopiperidin-3-yl)-5-((2-(4-(6-(6-((R)-2˜ (3-fluorophenyl)pyrrolidin-1-yl)imidazo[1,2-b]pyridazin-3-yl)pyridin-2-yl)piperazin-1-yl)ethyl)amino) isoindoline-1,3-dione], in the series on KM12 cells, the 50% inhibitory concentration (IC50) stood at 2.9 nM. For the same compound, on TPM3-TRKA fusion protein, the percent degradation of TPM3-TRKA protein at 0.01 µM is greater than 80%. In addition, in series [2], the “in vivo anti-tumor activity (tumor volume)” value is “significant in vivo anti-tumor activity”.
On to `O=C1CCC(N2C(=O)c3ccc(N4CC(CN5CCN(c6cccc(-c7cnc8ccc(N9CCC[C@@H]9c9cccc(F)c9)nn78)n6)CC5)C4)cc3C2=O)C(=O)N1` (stereo partly drawn) [TR-198, 2-(2,6-dioxopiperidin-3-yl)-5-(3-((4-(6-(6-((R)-2-(3-fluorophenyl)pyrrolidin-1-yl)imidazo[1,2-b]pyridazin-3-yl)pyridin-2-yl)piperazin-1-yl)methyl)azetidin-1-yl)isoindoline-1,3-dione], for which, on TPM3-TRKA fusion protein, the percent degradation of TPM3-TRKA protein at 0.01 µM is greater than 80%. The “in vivo anti-tumor activity (tumor volume)” value in series [2] is “significant in vivo anti-tumor activity”.
As a reminder, the bioavailability is dose-corrected exposure relative to a reference, in per cent. A higher bioavailability goes with good availability. In series [1], `O=C1CCC(N2C(=O)c3ccc(N4CC(CN5CCN(c6ccc(C(=O)Nc7n[nH]c8ccc(Cc9cc(F)cc(F)c9)cc78)c(NC7CCOCC7)c6)CC5)C4)cc3C2=O)C(=O)N1` (stereo not drawn) [TR-231] returned a bioavailability of roughly 48%. Besides, in the series with KM12 cells, the IC50 came to 3 nM. In addition, the percent degradation of TPM3-TRKA protein at 0.01 µM on TPM3-TRKA fusion protein is greater than 80%.
Regarding `O=C1CCC(N2C(=O)c3ccc(N4CC(N5CCN(c6ccc(C(=O)Nc7n[nH]c8ccc(Cc9cc(F)cc(F)c9)cc78)c(NC7CCOCC7)c6)CC5)C4)cc3C2=O)C(=O)N1` (stereo not drawn) [TR-275, N-(5-(3,5-difluorobenzyl)-1H-indazol-3-yl)-4-(4-(1-(2-(2,6-dioxopiperidin-3-yl)-1,3-dioxoisoindolin-5-yl)azetidin-3-yl)piperazin-1-yl)-2-((tetrahydro-2H-pyran-4-yl)amino)benzamide], in series [1], the bioavailability is roughly 27%. In addition, the IC50 in the series with KM12 cells is 8.9 nM. On TPM3-TRKA fusion protein, the percent degradation of TPM3-TRKA protein at 0.01 µM lay within 50 to 80%.
In the case of `O=C(Nc1cnn2ccc(N3CCC[C@@H]3c3cc(F)ccc3F)nc12)N1CC[C@H](O)C1` [larotrectinib], the “patient remained progression-free at 1 year” value in the series with TRK-fusions (at 1 year) is given as 55%. The “patients responded to the therapy” value in the series with TRK-fusions (patients with TRK-fusions) is listed as 75%.
